Laboratory results published in patent publication US20140308733A1, “METHOD FOR INDUCING GERMINATION OF SPORE FORMING BACTERIUM” (CALPIS CO., LTD., priority 2011, published 2014).

Assays:
Assay type in all cases: cell-based
[1] = tested on: Aeribacillus pallidus TK6004 (FERM BP-08597); experiment: Germination induction, change of turbidity (630 nm) of spore suspension; conditions: 300 ppm, 37° C., 150 rpm
Protocol: (§1) It is possible to determine whether spores have germinated, after measuring an OD 630 value (turbidity at 630 nm) of the liquid culture, based on decrease in the value (Literature: Microbiology, (1950), 4, 3, 330-338). Briefly, bacterial cells after culturing are washed with distilled water and diluted with distilled water to OD 630=1.0, which is then mixed with an equal volume of a germination induction solution, and the turbidity at 630 nm is measured by a UV spectrophotometer at room temperature.
(§2) TS culture media (Difco, Trypticase Soy Broth) were inoculated respectively with 11 strains listed in Table 1 and cultured at 50° C. with respect to Geobacillus stearothermophilus NBRC13737 and Aeribacillus pallidus TK6004 (FERM BP-08597), and at 37° C. with respect to the other 9 strains, until respective colonies were established. Then with respect to each of 11 strains, a loop full of a single colony was scratched by a platinum loop and suspended in 500 μL of sterilized water. In 1000 g of water was dissolved 8.0 g of a nutrient agar culture medium (Difco, Nutrient Broth), followed by high pressure steam sterilization (121° C., 15 min) to prepare a plate medium. The nutrient agar culture medium was smeared with each 100 μL of the suspension and cultured at 37° C. for 3 days.
(§3) Then, bacterial cells were suspended using a platinum loop in 500 μL of sterilized water, and the bacterial suspension was subjected to a heat shock at 65° C. for 35 min. Each 100 μL of the heat-shocked bacterial suspension and a not-heat-shocked bacterial suspension were smeared on the TS culture media respectively and cultured at 50° C. or 37° C. for 1 day. As the results of the cultures, colony formation was confirmed also with respect to the heat-shocked bacterial suspensions, to confirm that spores were formed for all of 11 strains. Further, since the bacteria were not stained by Gram staining, it was reconfirmed that spores were formed.
(§4) After confirming the spore formation, the bacterial cells were collected by a bacteria spreader, suspended in 10 mL of sterilized distilled water, and then centrifuged (8340×g, 4° C., 15 min). The supernatant was removed and thereafter the bacterial cells were washed twice with 10 mL of sterilized water. After washing, the bacterial cells were suspended in 5 mL of sterilized water, and the suspension was filtrated by sterilized Kimwipes. The filtrate was centrifuged (8340×g, 4° C., 15 min) to remove the supernatant, and the rest was adjusted to the turbidity (at 630 nm) of 1.0 with sterilized water.
(§5) After dissolving with stirring using a stirring rod with a propeller, filtration sterilization (0.45 μm filter) was conducted to prepare each 600 ppm-solution.
(§6) Five hundred (500) μL of each solution and 500 μL of each bacterial spore suspension were mixed. […] Defining the time point of mixing as the reaction initiation (0 min), and continuing shaking (150 rpm) at 37° C., the turbidity (630 nm) was measured at 10, 20, 30, 40, 50, 60, 90, 120, and 180 min after the reaction initiation.
(§7) Since the turbidity at 630 nm decreases by germination of spores, it has been known that the turbidity at 630 nm can be used to determine the germination rate.

[2] = tested on: Bacillus amyloliquefaciens (NBRC 3022); experiment: as above; conditions: 300 ppm, 37° C., 150 rpm
Protocol: as §1, §2, §3, §4, §5, §6, §7

[3] = tested on: Bacillus amyloliquefaciens (NBRC 3032); experiment: as above; conditions: 300 ppm, 37° C., 150 rpm
Protocol: as §1, §2, §3, §4, §5, §6, §7

[4] = tested on: Bacillus coagulans (NBRC 12583); experiment: as above; conditions: 300 ppm, 37° C., 150 rpm
Protocol: as §1, §2, §3, §4, §5, §6, §7

[5] = tested on: Bacillus coagulans (NBRC 3887); experiment: as above; conditions: 300 ppm, 37° C., 150 rpm
Protocol: as §1, §2, §3, §4, §5, §6, §7

[6] = tested on: Bacillus licheniformis (NBRC 12195); experiment: as above; conditions: 300 ppm, 37° C., 150 rpm
Protocol: as §1, §2, §3, §4, §5, §6, §7

[7] = tested on: Bacillus subtilis C-3102 (FERM BP-1096); experiment: as above; conditions: 300 ppm, 37° C., 150 rpm
Protocol: as §1, §2, §3, §4, §5, §6, §7

[8] = tested on: Bacillus subtilis sp spizizenii (NBRC 101239); experiment: as above; conditions: 300 ppm, 37° C., 150 rpm
Protocol: as §1, §2, §3, §4, §5, §6, §7

[9] = tested on: Geobacillus stearothermophilus (NBRC 13737); experiment: as above; conditions: 300 ppm, 37° C., 150 rpm
Protocol: as §1, §2, §3, §4, §5, §6, §7

[10] = tested on: Bacillus licheniformis (NBRC 14206); experiment: as above; conditions: 300 ppm, 37° C., 150 rpm
Protocol: as §1, §2
Then, bacterial cells were suspended using a platinum loop in 500 μL of sterilized water, and the bacterial suspension was subjected to a heat shock at 65° C. for 35 min. Each 100 μL of the heat-shocked bacterial suspension and a not-heat-shocked bacterial suspension were smeared on the TS culture media respectively and cultured at 50° C. or 37° C. for 1 day.
as §4, §5, §6, §7

[11] = tested on: Bacillus subtilis C-3102 (FERM BP-1096); experiment: Germination induction by ferulic acid, vanillic acid or p-coumaric acid at 300 ppm, turbidity change (Example 3); conditions: for turbidity (630 nm): 37° C., 150 rpm
Protocol: In each 500 mL of distilled water heated to 70° C. was added 0.3 g of ferulic acid, vanillic acid, or p-coumaric acid. After dissolving with stirring using a stirring rod with a propeller, filtration sterilization (0.45 μm filter) was conducted to prepare each 600 ppm-solution.
Next, 500 μL aliquots of bacterial suspension of Bacillus subtilis C-3102 (FERM BP-1096) prepared by a similar method as in Example 1 were mixed with 500 μL of each of the ferulic acid, vanillic acid, and p-coumaric acid solutions, and the mixtures were adjusted to 300 ppm of ferulic acid, vanillic acid, or p-coumaric acid concentration. Defining the time point of mixing as the reaction initiation (0 min), and continuing shaking (150 rpm) at 37° C., the turbidity (630 nm) was measured at 10, 20, 30, 40, 50, 60, 90, 120, and 180 min after the reaction initiation.

[12] = 0 min after reaction initiation
[13] = 10 min after reaction initiation
[14] = 20 min after reaction initiation
[15] = 30 min after reaction initiation
[16] = 40 min after reaction initiation
[17] = 50 min after reaction initiation
[18] = 60 min after reaction initiation
[19] = 90 min after reaction initiation
[20] = 120 min after reaction initiation
[21] = 180 min after reaction initiation

With `C[C@H](N)C(=O)O` [L-Ala, L-alanine, reference compound] the “turbidity (630 nm)” value [1, 12] was 0.488, the “turbidity (630 nm)” value [1, 13] was 0.470 and the “turbidity (630 nm)” value [1, 14] was 0.463. For the same compound, the “turbidity (630 nm)” value [1, 15] was 0.457, the “turbidity (630 nm)” value [1, 16] was 0.451 and the “turbidity (630 nm)” value [1, 17] was 0.445. The “turbidity (630 nm)” value [1, 18] was 0.441, the “turbidity (630 nm)” value [1, 19] was 0.416 and the “turbidity (630 nm)” value [1, 20] was 0.404. The “turbidity (630 nm)” value [1, 21] was 0.370, the “turbidity (630 nm)” value [2, 12] was 0.565 and the “turbidity (630 nm)” value [2, 13] was 0.505. For the same compound, the “turbidity (630 nm)” value [2, 14] was 0.506, the “turbidity (630 nm)” value [2, 15] was 0.461 and the “turbidity (630 nm)” value [2, 16] was 0.495. For the same compound, the “turbidity (630 nm)” value [2, 17] was 0.504, the “turbidity (630 nm)” value [2, 18] was 0.506 and the “turbidity (630 nm)” value [2, 19] was 0.490. For the same compound, the “turbidity (630 nm)” value [2, 20] was 0.505, the “turbidity (630 nm)” value [2, 21] was 0.493 and the “turbidity (630 nm)” value [3, 12] was 0.517. For the same compound, the “turbidity (630 nm)” value [3, 13] was 0.418, the “turbidity (630 nm)” value [3, 14] was 0.362 and the “turbidity (630 nm)” value [3, 15] was 0.347. The “turbidity (630 nm)” value [3, 16] was 0.333, the “turbidity (630 nm)” value [3, 17] was 0.315 and the “turbidity (630 nm)” value [3, 18] was 0.32. For the same compound, the “turbidity (630 nm)” value [3, 19] was 0.298, the “turbidity (630 nm)” value [3, 20] was 0.290 and the “turbidity (630 nm)” value [3, 21] was 0.274. The “turbidity (630 nm)” value [4, 12] was 0.564, the “turbidity (630 nm)” value [4, 13] was 0.559 and the “turbidity (630 nm)” value [4, 14] was 0.545. For the same compound, the “turbidity (630 nm)” value [4, 15] was 0.515, the “turbidity (630 nm)” value [4, 16] was 0.502 and the “turbidity (630 nm)” value [4, 17] was 0.498. The “turbidity (630 nm)” value [4, 18] was 0.510, the “turbidity (630 nm)” value [4, 19] was 0.510 and the “turbidity (630 nm)” value [4, 20] was 0.507. The “turbidity (630 nm)” value [4, 21] was 0.491, the “turbidity (630 nm)” value [5, 12] was 0.510 and the “turbidity (630 nm)” value [5, 13] was 0.508. The “turbidity (630 nm)” value [5, 14] was 0.470, the “turbidity (630 nm)” value [5, 15] was 0.515 and the “turbidity (630 nm)” value [5, 16] was 0.488. For the same compound, the “turbidity (630 nm)” value [5, 17] was 0.500, the “turbidity (630 nm)” value [5, 18] was 0.500 and the “turbidity (630 nm)” value [5, 19] was 0.472. The “turbidity (630 nm)” value [5, 20] was 0.500, the “turbidity (630 nm)” value [5, 21] was 0.490 and the “turbidity (630 nm)” value [6, 12] was 0.534. The “turbidity (630 nm)” value [6, 13] was 0.526, the “turbidity (630 nm)” value [6, 14] was 0.517 and the “turbidity (630 nm)” value [6, 15] was 0.510. The “turbidity (630 nm)” value [6, 16] was 0.508, the “turbidity (630 nm)” value [6, 17] was 0.503 and the “turbidity (630 nm)” value [6, 18] was 0.503. The “turbidity (630 nm)” value [6, 19] was 0.493, the “turbidity (630 nm)” value [6, 20] was 0.492 and the “turbidity (630 nm)” value [6, 21] was 0.498. For the same compound, the “turbidity (630 nm)” value [7, 12] was 0.606, the “turbidity (630 nm)” value [7, 13] was 0.607 and the “turbidity (630 nm)” value [7, 14] was 0.597. The “turbidity (630 nm)” value [7, 15] was 0.597, the “turbidity (630 nm)” value [7, 16] was 0.594 and the “turbidity (630 nm)” value [7, 17] was 0.590. For the same compound, the “turbidity (630 nm)” value [7, 18] was 0.582, the “turbidity (630 nm)” value [7, 19] was 0.584 and the “turbidity (630 nm)” value [7, 20] was 0.574. The “turbidity (630 nm)” value [7, 21] was 0.578, the “turbidity (630 nm)” value [8, 12] was 0.527 and the “turbidity (630 nm)” value [8, 13] was 0.520. For the same compound, the “turbidity (630 nm)” value [8, 14] was 0.514, the “turbidity (630 nm)” value [8, 15] was 0.501 and the “turbidity (630 nm)” value [8, 16] was 0.488. The “turbidity (630 nm)” value [8, 17] was 0.475, the “turbidity (630 nm)” value [8, 18] was 0.455 and the “turbidity (630 nm)” value [8, 19] was 0.409. For the same compound, the “turbidity (630 nm)” value [8, 20] was 0.387, the “turbidity (630 nm)” value [8, 21] was 0.366 and the “turbidity (630 nm)” value [9, 12] was 0.577. For the same compound, the “turbidity (630 nm)” value [9, 13] was 0.573, the “turbidity (630 nm)” value [9, 14] was 0.566 and the “turbidity (630 nm)” value [9, 15] was 0.565. For the same compound, the “turbidity (630 nm)” value [9, 16] was 0.568, the “turbidity (630 nm)” value [9, 17] was 0.561 and the “turbidity (630 nm)” value [9, 18] was 0.568. The “turbidity (630 nm)” value [9, 19] was 0.565, the “turbidity (630 nm)” value [9, 20] was 0.553 and the “turbidity (630 nm)” value [9, 21] was 0.538. For the same compound, the “turbidity (630 nm)” value [10, 14] was 0.535, the “turbidity (630 nm)” value [10, 15] was 0.502 and the “turbidity (630 nm)” value [10, 16] was 0.490. For the same compound, the “turbidity (630 nm)” value [10, 17] was 0.482, the “turbidity (630 nm)” value [10, 18] was 0.477 and the “turbidity (630 nm)” value [10, 19] was 0.470. For the same compound, the “turbidity (630 nm)” value [10, 20] was 0.465 and the “turbidity (630 nm)” value [10, 21] was 0.468.

In the case of `O=C(O)/C=C/c1ccc(O)cc1` [p-Coumaric acid, p-coumaric acid], the “germination confirmed by turbidity decrease” value [11] was “decreased, thereby to confirm germination”, the “turbidity (630 nm)” value [11, 12] was 0.545 and the “turbidity (630 nm)” value [11, 13] was 0.523. For the same compound, the “turbidity (630 nm)” value [11, 14] was 0.506, the “turbidity (630 nm)” value [11, 15] was 0.488 and the “turbidity (630 nm)” value [11, 16] was 0.475. For the same compound, the “turbidity (630 nm)” value [11, 17] was 0.460, the “turbidity (630 nm)” value [11, 18] was 0.420 and the “turbidity (630 nm)” value [11, 19] was 0.392. The “turbidity (630 nm)” value [11, 20] was 0.360 and the “turbidity (630 nm)” value [11, 21] was 0.319.
